Experimental data: patent publication US12297457B2, “Esophageal tissue and/or organoid compositions and methods of making same” (Children's Hospital Medical Center, priority 2017, dated 2025)
Entries after “also recorded” stand apart in the source; their conditions may differ.

Key:
Format in all cases: cell-based, human
CDX2-induced HEOs = test: Notch inhibition in CDX2-induced HEOs (qPCR, IF); settings: d58 HEOs
Procedure: Human embryonic stem cell (hESC) line H1 (WA01, person) were purchased from WiCell. iPSC line iPS106 was generated in-house and approved by the institutional review board at CCHMC. All hPSCs were maintained on feeder-free cultures: cells were plated on hESC-qualified Matrigel (BD Biosciences, San Jose, Calif.) and maintained at 37° C. with 5% CO2 with daily replacement of mTeSR1 media (STEMCELL Technologies, Vancouver, Canada); cells were passaged routinely every 4 days using Dispase (STEMCELL Technologies). The HA-tagged SOX2, CDX2, or FANCA dox-inducible lines were generated by first cloning the human SOX2 ORF, CDX2 ORF, or FANCA ORF into pINDUCER20 (respectively) (Addgene #44012, Meerbrey et al., 2011). Next, lentivirus was generated with help of the Viral Vector Core Facility at CCHMC. The lentivirus for HA-SOX2 and CDX2 were transduced into hESCs with 2 μL of virus; these lines were maintained on selection with mTeSR1 and G418 (500 μg mL-1, ThermoFisher Scientific). The lentivirus for FANCA were transduced prior to the iPS106 line generation, as FANCA is required for maintenance of hPSC properties. The hESC H1 line (and transduced derivatives) was used in all experiments excluding Fanconi Anemia modeling in HEOs, which used the iPS106 line.
(§1) For the generation of anterior foregut spheroids, from definitive endoderm, cells were treated with Wnt3a (500 ng mL-1, R&D systems) for 2 days, and FGF4 (500 ng mL-1, R&D systems), Noggin (200 ng mL-1) for 3 days in RPMI 1640 with 2% dFBS. Three-dimensional culture and differentiation of anterior foregut spheroids into human esophageal organoids were obtained as described above.
Tissue cultures were fixed with 4% paraformaldehyde at either room temperature for 15 minutes (for monolayer cultures), or 4° C. for overnight (for organoids). […]
Monolayer cultures and organoids were harvested in total, including the plated/embedding matrigel. […] For qRT-PCR, Applicant used Quantitect SYBR-Green master mix (Qiagen) and ran the reaction on a QuantStudio 6 machine (ThermoFisher Scientific).

foregut spheroids = test: Anterior-posterior patterning of foregut spheroids (qPCR, IF); settings: for regional identity of foregut spheroids (HNF1β, SOX2, PROX1, HNF6): shorter duration of treatment following DE formation, day 6 spheroids
Procedure: Confluent hPSC cultures were treated with Acutase (STEMCELL Technologies) to resuspend as single cells in mTeSR1 and Y-27632 (10 μM, Tocris) and plated on Matrigel. On the following day, differentiation into definitive endoderm was carried out as previously described (McCracken et al., 2014). Briefly, cells were treated with Activin A (100 ng mL-1, R&D systems, Minneapolis, Minn.) and BMP4 (50 ng mL-1, R&D systems) on the first day in RPMI 1640 media (Life Technologies). Cells in the following two days were treated with only Activin A (100 ng mL-1) in RPMI 1640 with increasing concentrations 0.2% and 2% of HyClone defined fetal bovine serum (dFBS, GE Healthcare Life Sciences).
For anterior foregut monolayer cultures, cells were treated for 3 days in Noggin (200 ng mL-1) in RPMI 1640 with 2% dFBS, with all-trans retinoic acid (2 μM, Sigma, St. Louis, Mo.) the 3rd day.
(§2) Alternately, for the generation of anterior foregut spheroids, from definitive endoderm, cells were treated with FGF4 (500 ng mL-1, R&D systems), Noggin (200 ng mL-1) for 3 days in RPMI 1640 with 2% dFBS. Additional factors were tested during this time (described in results), such as CHIR99021 (“chiron” or “chr”, 2 μM, Tocris), Wnt3a (500 ng mL-1, R&D systems), SB431542 (10 μM, Tocris), DEAB (10 μM, Sigma), and retinoic acid (2 μM).
Tissue cultures were fixed with 4% paraformaldehyde at either room temperature for 15 minutes, 4° C. for 2 hours for cryosectioning, or 4° C. overnight for paraffin embedding/sectioning and mouse embryos. For paraffin embedding and sectioning, following fixation, tissues were dehydrated and embedded into paraffin blocks. Afterwards, paraffin-sectioned slides were deparaffinized and subjected to antigen retrieval in 10 mM sodium citrate for 30 minutes prior to staining. For cryosectioning, tissues were thoroughly washed in PBS, left in 30% sucrose overnight, embedded in OCT compound (VWR), and sectioned at a thickness of 8 μm. Commonly, slides were then permeabilized with 0.5% TritonX-100 in PBS for 10 minutes, blocked in 5% normal donkey serum (Jackson ImmunoResearch) for 1 hour, and incubated in primary antibody overnight at 4° C. On the next day, slides were thoroughly washed in PBS, incubated in secondary antibody (at 1:500) for 1 hour, and then thoroughly washed again. For EdU visualization, Applicant used the Click-iT EdU Alexa Fluor 488 Imaging Kit (Invitrogen) prior to blocking. For wholemount immunofluorescence staining, embryos were placed in 100% methanol immediately after fixation. Embryos were then permeabilized with Dent's Bleach (4:1:1 MeOH:DMSO:30% H2O2) for 2 hours at room temperature, rehydrated with methanol washes, and blocked for several hours at room temperature to overnight at 4° C. Primary antibodies were applied and embryos incubated overnight at 4° C. Then, embryos were thoroughly washed in 0.1% TritonX-100 in PBS before incubating in secondary antibodies overnight at 4° C. Finally, embryos were washed again, dehydrated with methanol washes, and cleared with Murray's Clear (2:1 benzyl benzoate:benzyl alcohol, Sigma) at least 15 minutes prior to imaging. For a list of antibodies and dilutions used, please see Table 2.
Spheroid and organoids were harvested in total, including the embedding matrigel. Collagen plugs from the organotypic raft cultures were first removed from the transwell on day 14, and subsequently harvested in total. Total RNA was isolated using the NucleoSpin RNA kit (Macherey-Nagel) and reverse transcribed to cDNA using the SuperScript VILO cDNA synthesis kit (ThermoFisher Scientific). For qRT-PCR, Applicant used Quantitect SYBR-Green master mix (Qiagen) and ran the reaction on a QuantStudio 6 machine (ThermoFisher Scientific). For a list of primers used, please see Table 1.

HEOs [1] = test: IL-13 treatment of HEOs, eosinophilic esophagitis model (qPCR, Western blot, IF, EdU, H&E, electron microscopy)
Procedure: (§3) Anterior foregut spheroids were transferred into 50 μL droplets of Matrigel, and are cultured for 3-58 days in the base (“Gut”) media of Advanced DMEM/F12 (ThermoFisher Scientific) supplemented with B27 supplement (1×, ThermoFisher Scientific), N2 supplement (1×, ThermoFisher Scientific), HEPES (13 mM, ThermoFisher Scientific), L-Glutamine (2 mM ThermoFisher Scientific), penicillin/streptomycin (1×, ThermoFisher Scientific), and EGF (100 ng mL^−1, R&D systems). In addition to this base media, the first three days were supplemented with Noggin (200 ng mL^−1), FGF10 (50 ng mL^−1), and CultureOne supplement (1×, ThermoFisher Scientific). FGF10 and CultureOne supplementation is continued until the end of the first week in three-dimensional culture. Media was replaced every 3-4 days. For EdU labeling, media was supplemented with EdU (10 μM Invitrogen) for a defined period of time, and was removed by washing with sterile PBS twice before replacing with media without EdU.
as §1
(§4) Tissue cultures were fixed with 4% paraformaldehyde at either room temperature for 15 minutes (for monolayer cultures), or 4° C. for overnight (for organoids). Tissues were thoroughly washed in PBS and stained for monolayer cultures, while organoids were thoroughly washed and then left in 30% sucrose overnight, embedded in OCT compound (VWR), and sectioned at a thickness of 8 μm. Slides were then permeabilized with 0.5% TritonX-100 in PBS for 10 minutes, blocked in 5% normal donkey serum (Jackson ImmunoResearch) for 1 hour minimum, and incubated in primary antibody overnight at 4° C. On the next day, slides were thoroughly washed in PBS, incubated in secondary antibody (at 1:500) for 1 hour, and then thoroughly washed again. For EdU visualization, the Click-iT EdU Alexa Fluor 488 Imaging Kit (Invitrogen) was used prior to blocking.
(§5) Monolayer cultures and organoids were harvested in total, including the plated/embedding matrigel. Total RNA was isolated using the NucleoSpin RNA kit (Macherey-Nagel) and reverse transcribed to cDNA using the SuperScript VILO cDNA synthesis kit (ThermoFisher Scientific). For qRT-PCR, Applicant used Quantitect SYBR-Green master mix (Qiagen) and ran the reaction on a QuantStudio 6 machine (ThermoFisher Scientific).

AFG spheroids = test: Dorsal-ventral patterning / respiratory induction of anterior foregut spheroids (qPCR, IF); settings: day 6 AFG spheroids treated 3 days; analysed day 9
Procedure: as §2
Anterior foregut spheroids were transferred into 50 μL droplets of Matrigel, and are cultured for 3-58 days in the base (“Gut”) media of Advanced DMEM/F12 (ThermoFisher Scientific) supplemented with B27 supplement (1×, ThermoFisher Scientific), N2 supplement (1×, ThermoFisher Scientific), HEPES (13 mM, ThermoFisher Scientific), L-Glutamine (2 mM ThermoFisher Scientific), penicillin/streptomycin (1×, ThermoFisher Scientific), and EGF (100 ng mL^−1, R&D systems). In addition to this base media, the first three days were supplemented with Noggin (200 ng mL^−1), FGF10 (50 ng mL^−1), and CultureOne supplement (1×, ThermoFisher Scientific). […]
Spheroid and organoids were harvested in total, including the embedding matrigel. […] For qRT-PCR, Applicant used Quantitect SYBR-Green master mix (Qiagen) and ran the reaction on a QuantStudio 6 machine (ThermoFisher Scientific). […]

HEOs [2] = test: BMP activation in late stage HEOs (IF, EdU, qPCR)
Procedure: as §3, §1, §4, §5

[3] = 6-week-old HEOs, BMP4 100 ng/mL for additional 2 weeks

C[C@H](NC(=O)Cc1cc(F)cc(F)c1)C(=O)N[C@H](C(=O)OC(C)(C)C)c1ccccc1 [DAPT]
KRT5 expression (CDX2-induced HEOs; CDX2-induction plus DAPT): further downregulated | KRT13 expression, effect added to CDX2-induction (CDX2-induced HEOs; CDX2-induction plus DAPT): does not appear to be a synergistic effect | HESS (Notch target gene) expression (CDX2-induced HEOs; qPCR): downregulated

CCN(CC)c1ccc(C=O)cc1 [DEAB]
TP63 and pharyngeal marker expression of spheroids (foregut spheroids; cultures containing DEAB (blocking RA synthesis)): spheroids with minimal TP63 expression and increased levels of the pharyngeal markers PAX9 and OTX2

CC1=C(/C=C/C(C)=C/C=C/C(C)=C/C(=O)O)C(C)(C)CCC1 [RA, all-trans retinoic acid]
marker expression after RA treatment (foregut spheroids; 1 day of RA): promotes expression of TP63 and KRT4 and not posterior foregut markers GATA4 and PDX1; also recorded: spheroids that express TP63 | marker expression after RA treatment (foregut spheroids; RA for 4 days): express posterior foregut markers, GATA4 and PDX1

Cc1c[nH]c(-c2cnc(NCCNc3ccc(C#N)cn3)nc2-c2ccc(Cl)cc2Cl)n1 [chiron, CHIR99021]
gene expression profile of spheroids, chiron versus Wnt3a (foregut spheroids; one day of chiron treatment, qPCR): same gene expression profile as those generated with 2 days of Wnt3a | regional identity of foregut spheroids (HNF1β, SOX2, PROX1, HNF6) (foregut spheroids): formation of anterior foregut (AFG) spheroids expressing HNF1β and SOX2, with low levels of posterior foregut markers PROX1 and HNF6

IL-13: a cytokine known to enact broad changes in the esophagus
epithelial morphology by electron microscopy (HEOs [1]; IL-13 100 ng/mL for 2 weeks): increased spaces between individual cells and a decrease in cell-cell contacts | EdU incorporation in the basal-most p63+ cells (HEOs [1]; IL-13 100 ng/mL for 2 weeks, EdU 2 days): increased | BMP antagonists NOG and FST expression (HEOs [1]; IL-13 100 ng/mL for 2 weeks, qPCR): did not upregulate | epithelial morphology (HEOs [1]; IL-13 100 ng/mL for 2 weeks, IF, H&E): dilated intercellular spaces suprabasally | late differentiation and structural proteins (HEOs [1]; IL-13 100 ng/mL, 1-2 weeks): downregulated late differentiation and structural proteins DSG1, IVL, and CRNN | PTCH1 expression (read-out for hedgehog signaling) (HEOs [1]; IL-13 alone): upregulates | BMP target gene ID3 expression (HEOs [1]; day 62 HEOs, qPCR): mild increase | IL-13 target gene response (HEOs [1]; extended treatment (100 ng/mL, 1 week), Western blot): maintained upregulation of some target genes SERPINB13 and CDH26 | IL-13 target gene response (HEOs [1]; short duration (2 days prior to harvest), day 62 HEOs, qPCR): validated the response of target genes CCL26, CDH26, CAPN14, and SERPINB4

B1: Wnt3a: recombinant human Wnt3a, Wnt ligand (protein, UniProt P56704 19-352, looked up)
Protein Wnt-3a: SYPIWWSLAVGPQYSSLGSQPILCASIPGLVPKQLRFCRNYVEIMPSVAEGIKIGIQECQHQFRGRRWNCTTVHDSLAIFGPVLDKATRESAFVHAIASAGVAFAVTRSCAEGTAAICGCSSRHQGSPGKGWKWGGCSEDIEFGGMVSREFADARENRPDARSAMNRHNNEAGRQAIASHMHLKCKCHGLSGSCEVKTCWWSQPDFRAIGDFLKDKYDSASEMVVEKHRESRGWVETLRPRYTYFKVPTERDLVYYEASPNFCEPNPETGSFGTRDRTCNVSSHGIDGCDLLCCGRGHNARAERRREKCRCVFHWCCYVSCQECTRVYDVHTCK
regional identity of foregut spheroids (HNF1β, SOX2, PROX1, HNF6) (foregut spheroids): formation of anterior foregut (AFG) spheroids expressing HNF1β and SOX2, with low levels of posterior foregut markers PROX1 and HNF6

B2: Noggin: recombinant human Noggin, used to inhibit BMP signaling (protein, UniProt Q13253 28-232, looked up)
Noggin: QHYLHIRPAPSDNLPLVDLIEHPDPIFDPKEKDLNETLLRSLLGGHYDPGFMATSPPEDRPGGGGGAAGGAEDLAELDQLLRQRPSGAMPSEIKGLEFSEGLAQGKKQRLSKKLRRKLQMWLWSQTFCPVLYAWNDLGSRFWPRYVKVGSCFSKRSCSVPEGMVCKPSKSVHLTVLRWRCQRRGGQRCGWIPIQYPIISECKCSC
dorsal-ventral marker expression (NKX2-1, SOX2, MNX1, KRT4, TP63) (AFG spheroids): dorsalized spheroids, as marked by elevated levels of SOX2, MNX1, KRT4, and TP63

B3: BMP4: recombinant human BMP4 (protein, UniProt P12644 293-408, looked up)
Bone morphogenetic protein 4: SPKHHSQRARKKNKNCRRHSLYVDFSDVGWNDWIVAPPGYQAFYCHGDCPFPLADHLNSTNHAIVQTLVNSVNSSIPKACCVPTELSAISMLYLDEYDKVVLKNYQEMVVEGCGCR
state of remaining basal cells (pSMAD1/5/9, p63, SOX2) (HEOs [2]; [3]): have active BMP signaling (pSMAD1/5/9+) and express p63, but loss expression of SOX2 | stratification and differentiation markers (HEOs [2]; [3]): loss of stratification and expression of differentiation markers | EdU incorporation (HEOs [2]; BMP4 treated HEOs, day 62): minimal EdU incorporation | CDX2 expression (HEOs [2]; BMP4 treated HEOs, data not shown): unchanged
